The subject of one data set is SCC4 OSCC cell line. In words: MTT cell viability assay (cytotoxicity), SCC4. The data set is classed as cell-based, human. To be noted: for SCC4 S.I.: IC50 normal oral fibroblasts / IC50 SCC4; for pIC50: SCC4, 48 h, MTT, read-out: Oral Tumor Cells SCC4 IC50. How it is done:
(§1) Cells and reagents. Human SCC-4, SCC-9, and SCC-25 cells, derived from a human oral tongue SCC (squamous cell carcinoma) were obtained from the ATCC (CRL-1624, CRL-1629, and CRL-1628, respectively) and maintained in 1:1 DMEM/F12 (Dulbecco’s modified Eagle medium and Ham’s F12 medium; Gibco (Thermo Fisher, Waltham, MA, USA)) supplemented with 10% (v/v) FBS (fetal bovine serum; Invitrogen, Thermo Fisher, Waltham, MA, USA) and 400 ng/mL hydrocortisone (Sigma-Aldrich Co., St. Louis, MO, USA). Primary normal human gingival fibroblasts were obtained from the ATCC (PCS-201-018) and maintained in DMEM supplemented with 10% (v/v) FBS and were used in a maximum of six passages. The cells were grown in a humidified environment containing 5% CO2 at 37 °C. […] Carboplatin stock was prepared in water (Fauldcarbo®; LibbsFarmacêutica, São Paulo, SP, Brazil) and was used as a standard anticancer compound.
(§2) Cell viability assay (cytotoxicity) and compound stability assay. The viability of SCC cell lines and primary human fibroblast cells was evaluated using the MTT assay as in [48]. Briefly, the cells were grown in triplicates in 96-well plates (5 × 10^3 cells/well) until confluence. Then, the medium was removed, fresh medium was added, and the cells were returned to the incubator in the presence of different compounds. DMSO at the same concentrations was used as a 100% cell viability control. After 48 h, the cells were incubated with 5 mg/mL MTT reagent (3-(4,5-dimethyl-2-thiazolyl)-2,5-diphenyl-2-H-tetrazolium bromide) (Sigma-Aldrich Co., St. Louis, MO, USA) for 3.5 h. After that, formazan crystals were dissolved in MTT solvent solution (DMSO/methanol 1:1 v/v) and the absorbance at 560 nm was evaluated using an EPOCH microplate spectrophotometer (BioTek Instruments, Winooski, VT, USA) with the background absorbance at 670 nm subtracted.
(§3) Statistical analysis, IC50 calculation. The data are presented as means ±\SD. IC50 values for the MTT assays were obtained by nonlinear regression using the […] 5.0 program (Intuitive Software for Science, San Diego, CA, USA) from at least three independent experiments. A dose–response (inhibitor) vs. response curve using the least squares method was used to determine the IC50, SD, and R^2 of the data. The selectivity index was calculated as SI = IC50 of the compound in normal oral fibroblast cells/IC50 of the same compound for each oral cancer cell line (SCC-4, SCC-9, and SCC-25) and the mean was calculated when indicated.

The next data set has as its system SCC25 OSCC cell line. The data set can be described thus: MTT cell viability assay (cytotoxicity), SCC25. Format: cell-based, human. To be noted: for SCC25 S.I.: IC50 normal oral fibroblasts / IC50 SCC25; for pIC50: SCC25, 48 h, MTT, read-out: Oral Tumor Cells SCC25 IC50. How it is done: as §1, §2, §3
In general terms: Tetrazolium dyes change colour on reduction, which living cells bring about.

The test system of data set [1] is Primary normal human gingival fibroblasts. In words: MTT cell viability assay, normal fibroblasts. Format: cell-based. Conditions: primary gingival fibroblasts, 48 h, MTT, read-out: Primary Gingival Fibroblast IC50. How it is done:
as §1, §2, §3

The subject of a further data set is SCC9 (OSCC cell). In words: MTT cell viability assay (cytotoxicity), SCC9. Format: cell-based, human. Conditions: for SCC9 S.I.: IC50 normal oral fibroblasts / IC50 SCC9; for pIC50: SCC9, 48 h, MTT (Table 1), read-out: SCC9—Oral Cancer IC50. How it is done:
as §1, §2, §3

Data set [2] can be described thus: Solubility observation during MTT testing. The data set is classed as physicochemical. How it is done:
All 26 acridine-core naphthoquinone compounds were submitted to the MTT assay to assess their cytotoxicity. […] These compounds were excluded from further biological experimentation. First, the assay was conducted on the SCC9 OSCC cell line and the results were analyzed by a nonlinear regression curve to determine the value of the half maximal inhibitory concentration (IC50). […] Anticancer activities of these compounds are reported here for the first time.

[3] abbreviates: formed crystals at low concentrations in MTT assay.

pIC50: −log10 of the molar value. Read-outs that look alike come from different tables or passages of the source.

This note sets out measurements from paper PMC9415509, “Pro-Apoptotic Antitumoral Effect of Novel Acridine-Core Naphthoquinone Compounds against Oral Squamous Cell Carcinoma” (Molecules, 2022).

A word on the pIC50: it is the IC50 on a negative log10 scale, so that one unit is a factor of ten. As to `N.N.O=C([O-])C1(C(=O)[O-])CCC1.[Pt+2]` [Carboplatin, carboplatin], in the data set with SCC4 OSCC cell line, the “SCC4 S.I.” value is on record as 3.1 and the negative logarithm of the IC50 (pIC50) is 3.74. Moreover, in the data set on SCC25 OSCC cell line, the “SCC25 S.I.” value worked out at 3.0 and the pIC50 was 3.73. Further, the pIC50 in data set [1] is 3.25. Moreover, in the data set on SCC9 (OSCC cell), the “SCC9 S.I.” value stood at 2.2 and the pIC50 is 3.60.
What is called melting point is the temperature, or range, at which the solid turns liquid. In turn, `Cc1ccc(C2C3=C(CCCC3=O)NC3=C2C(=O)c2ccccc2C3=O)c(C)c1` (stereo not drawn) [5i, 12-(2,4-dimethylphenyl)-3,4-dihydrobenzo[b]acridine-1,6,11(2H,5H,12H)-trione] gave a melting point of 263 to 264 °C. In addition, the solubility entry in data set [2] (setting [3]) was “highly insoluble”.
Consider `CC1(C)CC(=O)C2=C(C1)NC1=C(C(=O)c3ccccc3C1=O)C2c1ccc(Br)cc1` (stereo not drawn) [4h, 12-(4-bromophenyl)-3,3-dimethyl-3,4-dihydrobenzo[b]acridine-1,6,11(2H,5H,12H)-trione], for which the melting point was in the range of 293 to 295 °C. Also, the pIC50 with SCC9 (OSCC cell) (Homo sapiens, SCC-9) is 5.23.
For the compound “12-(3,3-dimethylphenyl)-3,4-dihydrobenzo[b]acridine-1,6,11(2H,5H,12H)-trione [4a]”, in data set [2], the solubility result is given as “highly insoluble”.
Take `COc1cccc2c1C(=O)c1c(O)c3c(c(O)c1C2=O)C[C@@](O)(C(=O)CO)C[C@@H]3O[C@H]1C[C@H](N)[C@H](O)[C@H](C)O1` [Doxorubicin, doxorubicin]: the pIC50 is 5.34 with SCC4 OSCC cell line (Homo sapiens, SCC-4); 5.90 in the data set with SCC25 OSCC cell line (Homo sapiens, SCC-25); 4.91 in data set [1] (Homo sapiens, Fibroblast); 5.11 in the data set on SCC9 (OSCC cell) (Homo sapiens, SCC-9). Moreover, in the data set with SCC4 OSCC cell line, the “SCC4 S.I.” value worked out at 2.7. Further, the “SCC25 S.I.” value in the data set on SCC25 OSCC cell line came out at 9.7. In addition, in the data set with SCC9 (OSCC cell), the “SCC9 S.I.” value is on record as 1.6.
Regarding `COc1ccc(C2C3=C(CCCC3=O)NC3=C2C(=O)c2ccccc2C3=O)c(OC)c1` (stereo not drawn) [5j, 12-(2,4-dimethoxyphenyl)-3,4-dihydrobenzo[b]acridine-1,6,11(2H,5H,12H)-trione], the pIC50 with SCC9 (OSCC cell) (Homo sapiens, SCC-9) was 5.16.
For `O=C1CCCC2=C1C(c1ccccc1Cl)C1=C(N2)C(=O)c2ccccc2C1=O` (stereo not drawn) [5b, 12-(2-chlorophenyl)-3,4-dihydrobenzo[b]acridine-1,6,11(2H,5H,12H)-trione], the solubility entry in data set [2] (setting [3]) is reported as “highly insoluble”.
`O=C1CCCC2=C1C(c1ccc(Cl)cc1Cl)C1=C(N2)C(=O)c2ccccc2C1=O` (stereo not drawn) [5e, 12-(2.4-dichlorophenyl)-3,4-dihydrobenzo[b]acridine-1,6,11(2H,5H,12H)-trione]: the pIC50 with SCC9 (OSCC cell) (Homo sapiens, SCC-9) is 5.32.
Compound `CC1(C)CC(=O)C2=C(C1)NC1=C(C(=O)c3ccccc3C1=O)C2c1ccc(F)cc1` (stereo not drawn) [4f, 12-(4-fluorophenyl)-3,3-dimethyl-3,4-dihydrobenzo[b]acridine-1,6,11(2H,5H,12H)-trione] came in with a melting point of 295 to 297 °C. In addition, the solubility entry in data set [2] (setting [3]) was “highly insoluble”.
The corresponding values for `O=C1CCCC2=C1C(c1ccc(F)cc1)C1=C(N2)C(=O)c2ccccc2C1=O` (stereo not drawn) [5f, 12-(4-fluorophenyl)-3,4-dihydrobenzo[b]acridine-1,6,11(2H,5H,12H)-trione] are 255 to 256 °C and “highly insoluble”.
With `O=C1CCCC2=C1C(c1c(F)c(F)c(F)c(F)c1F)C1=C(N2)C(=O)c2ccccc2C1=O` (stereo not drawn) [5g, 12-(perfluorophenyl)-3,4-dihydrobenzo[b]acridine-1,6,11(2H,5H,12H)-trione], the solubility result in data set [2] (setting [3]) is given as “highly insoluble”.
As for `COc1cc(C2C3=C(CCCC3=O)NC3=C2C(=O)c2ccccc2C3=O)cc(OC)c1OC` (stereo not drawn) [5m, 12-(3,4,5-trimethoxyphenyl)-3,4-dihydrobenzo[b]acridine-1,6,11(2H,5H,12H)-trione], the melting point fell in the range of 236 to 237 °C. The pIC50 with SCC9 (OSCC cell) (Homo sapiens, SCC-9) was 5.48.
`O=C1CCCC2=C1C(c1cccc(Cl)c1)C1=C(N2)C(=O)c2ccccc2C1=O` (stereo not drawn) [5c, 12-(3-chlorophenyl)-3,4-dihydrobenzo[b]acridine-1,6,11(2H,5H,12H)-trione] came in with a melting point of 217 to 218 °C. The negative logarithm of the IC50 (pIC50) in the data set on SCC9 (OSCC cell) (Homo sapiens, SCC-9) was 5.05.
In turn, `O=C1CCCC2=C1C(c1ccccc1)C1=C(N2)C(=O)c2ccccc2C1=O` (stereo not drawn) [5a, 12-phenyl-3,4-dihydrobenzo[b]acridine-1,6,11(2H,5H,12H)-trione] registered a melting point of 287 to 288 °C. The solubility entry in data set [2] (setting [3]) was “highly insoluble”.
Turning to `COc1ccc(C2C3=C(CC(C)(C)CC3=O)NC3=C2C(=O)c2ccccc2C3=O)cc1OC` (stereo not drawn) [4l, 12-(3,4-dimethoxyphenyl)-3,3-dimethyl-3,4-dihydrobenzo[b]acridine-1,6,11(2H,5H,12H)-trione], the melting point lay within 238 to 239 °C. For the same compound, in the data set on SCC9 (OSCC cell) (Homo sapiens, SCC-9), the pIC50 was 5.35.
Taken in the same sequence, the figures for `COc1ccc(C2C3=C(CCCC3=O)NC3=C2C(=O)c2ccccc2C3=O)cc1OC` (stereo not drawn) [5l, 12-(3,4-dimethoxyphenyl)-3,4-dihydrobenzo[b]acridine-1,6,11(2H,5H,12H)-trione] were 228 to 230 °C and 5.23.
`CC1(C)CC(=O)C2=C(C1)NC1=C(C(=O)c3ccccc3C1=O)C2c1c(F)c(F)c(F)c(F)c1F` (stereo not drawn) [4g, 12-(perfluorophenyl)-3,3-dimethyl-3,4-dihydrobenzo[b]acridine-1,6,11(2H,5H,12H)-trione] yielded a melting point of 260 to 261 °C. In addition, in data set [2] (setting [3]), the solubility entry is “highly insoluble”.
The compound `O=C1CCCC2=C1C(c1ccc(Cl)cc1)C1=C(N2)C(=O)c2ccccc2C1=O` (stereo not drawn) [5d, 12-(4-chlorophenyl)-3,4-dihydrobenzo[b]acridine-1,6,11(2H,5H,12H)-trione] registered a melting point of 230 to 231 °C. The pIC50 with SCC9 (OSCC cell) (Homo sapiens, SCC-9) was 5.66.
In turn, `CC1(C)CC(=O)C2=C(C1)NC1=C(C(=O)c3ccccc3C1=O)C2c1cccc(Cl)c1` (stereo not drawn) [4c, 12-(3-chlorophenyl)-3,3-dimethyl-3,4-dihydrobenzo[b]acridine-1,6,11(2H,5H,12H)-trione] gave a melting point of 249 to 251 °C. The negative logarithm of the IC50 (pIC50) with SCC9 (OSCC cell) (Homo sapiens, SCC-9) is 4.83.
For the compound `CC1(C)CC(=O)C2=C(C1)NC1=C(C(=O)c3ccccc3C1=O)C2c1ccccc1Cl` (stereo not drawn) [4b, 12-(2-chlorophenyl)-3,3-dimethyl-3,4-dihydrobenzo[b]acridine-1,6,11(2H,5H,12H)-trione], in data set [2] (setting [3]), the solubility entry is “highly insoluble”.
Regarding `CC1(C)CC(=O)C2=C(C1)NC1=C(C(=O)c3ccccc3C1=O)C2c1ccc(Cl)cc1` (stereo not drawn) [4d, 12-(4-chlorophenyl)-3,3-dimethyl-3,4-dihydrobenzo[b]acridine-1,6,11(2H,5H,12H)-trione], the melting point lay in the range of 287 to 288 °C. For the same compound, in the data set on SCC9 (OSCC cell) (Homo sapiens, SCC-9), the negative logarithm of the IC50 (pIC50) is 4.29.
`COc1ccc(OC)c(C2C3=C(CCCC3=O)NC3=C2C(=O)c2ccccc2C3=O)c1` (stereo not drawn) [5k, 12-(2,5-dimethoxyphenyl)-3,4-dihydrobenzo[b]acridine-1,6,11(2H,5H,12H)-trione]: the melting point lay in the range of 219 to 220 °C. The negative logarithm of the IC50 (pIC50) in the data set with SCC9 (OSCC cell) (Homo sapiens, SCC-9) is 5.14.
Take `Cc1ccc(C2C3=C(CC(C)(C)CC3=O)NC3=C2C(=O)c2ccccc2C3=O)c(C)c1` (stereo not drawn) [4i, 12-(2,4-dimethylphenyl)-3,3-dimethyl-3,4-dihydrobenzo[b]acridine-1,6,11(2H,5H,12H)-trione]: the solubility entry in data set [2] (setting [3]) is “highly insoluble”.
Consider `O=C1CCCC2=C1C(c1ccc(Br)cc1)C1=C(N2)C(=O)c2ccccc2C1=O` (stereo not drawn) [5h, 12-(4-bromophenyl)-3,4-dihydrobenzo[b]acridine-1,6,11(2H,5H,12H)-trione], for which the melting point is 257 to 258 °C. In addition, the pIC50 with SCC9 (OSCC cell) (Homo sapiens, SCC-9) was 5.12.
